ChEMBL document CHEMBL1201861, “Genomics of Drug Sensitity in Cancer screening data, Wellcome Trust Sanger Institute”

How the values were obtained:
JEG-3 = test: cells; type: functional, cell-based; details: Homo sapiens;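 further: growth inhibition of human JEG-3 cells, read out with a cell viability assay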
Description: SANGER: Inhibition of human JEG-3 cell growth in a cell viability assay.

SNU-423 = test: cells; type: functional, cell-based; details: Homo sapiens
Description: SANGER: Inhibition of human SNU-423 cell growth in a cell viability assay.

G-402 = test: cells; type: functional, cell-based; details: Homo sapiens
Description: SANGER: Inhibition of human G-402 cell growth in a cell viability assay.

M059J = test: cells; type: functional, cell-based; details: Homo sapiens;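 further: growth inhibition of M059J cells, read out with a cell viability assay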
Description: SANGER: Inhibition of human M059J cell growth in a cell viability assay.

NCI-H1563 = test: cells; type: functional, cell-based; details: Homo sapiens;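 further: growth inhibition of human NCI-H1563 cells, read out with a cell viability assay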
Description: SANGER: Inhibition of human NCI-H1563 cell growth in a cell viability assay.

VMRC-RCZ = test: cells; type: functional, cell-based; details: Homo sapiens
Description: SANGER: Inhibition of human VMRC-RCZ cell growth in a cell viability assay.

AGS = test: cells; type: functional, cell-based; details: Homo sapiens;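 further: growth inhibition of AGS cells, determined with a cell viability assay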
Description: SANGER: Inhibition of human AGS cell growth in a cell viability assay.

HT55 = test: cells; type: functional, cell-based; details: Homo sapiens;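 further: cell viability readout measuring growth inhibition of human HT55 cells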
Description: SANGER: Inhibition of human HT55 cell growth in a cell viability assay.

LK-2 = test: cells; type: functional, cell-based; details: Homo sapiens;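 further: growth inhibition of LK-2 cells, read out with a viability assay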
Description: SANGER: Inhibition of human LK-2 cell growth in a cell viability assay.

SW-620 = test: cells; type: functional, cell-based; details: Homo sapiens;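 further: growth inhibition of human SW-620 cells, measured by a cell viability assay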
Description: SANGER: Inhibition of human SW620 cell growth in a cell viability assay.

HEC-1 = test: cells; type: functional, cell-based; details: Homo sapiens;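 further: growth inhibition of the cell line, read out with a cell viability assay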
Description: SANGER: Inhibition of human HEC-1 cell growth in a cell viability assay.

NCI-H460 = test: cells; type: functional, cell-based; details: Homo sapiens;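 further: cell viability assay scoring growth inhibition of human NCI-H460 cells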
Description: SANGER: Inhibition of human NCI-H460 cell growth in a cell viability assay.

RPMI-2650 = test: cells; type: functional, cell-based; details: Homo sapiens
Description: SANGER: Inhibition of human RPMI-2650 cell growth in a cell viability assay.

Hs-578T = test: cells; type: functional, cell-based; details: Homo sapiens
Description: SANGER: Inhibition of human Hs-578-T cell growth in a cell viability assay.

MG-63 = test: cells; type: functional, cell-based; details: Homo sapiens;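 further: growth inhibition of human MG-63 cells, read out with a cell viability assay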
Description: SANGER: Inhibition of human MG-63 cell growth in a cell viability assay.

KP-N-YN = test: cells; type: functional, cell-based; details: Homo sapiens;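 further: growth inhibition of KP-N-YN cells, read out with a cell viability assay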
Description: SANGER: Inhibition of human KP-N-YN cell growth in a cell viability assay.

LCLC-103H cell line = test: cells; type: functional, cell-based; details: Homo sapiens
Description: SANGER: Inhibition of human LCLC-103H cell growth in a cell viability assay.

NY = test: cells; type: functional, cell-based; details: Homo sapiens
Description: SANGER: Inhibition of human NY cell growth in a cell viability assay.

T98G = test: cells; type: functional, cell-based; details: Homo sapiens;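 further: growth inhibition of T98G cells, read out by a cell viability assay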
Description: SANGER: Inhibition of human T98G cell growth in a cell viability assay.

PANC-08-13 = test: cells; type: functional, cell-based; details: Homo sapiens
Description: SANGER: Inhibition of human PANC-08-13 cell growth in a cell viability assay.

NCI-H522 = test: cells; type: functional, cell-based; details: Homo sapiens;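 further: cell viability assay measuring growth inhibition of human NCI-H522 cells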
Description: SANGER: Inhibition of human NCI-H522 cell growth in a cell viability assay.

NCI-H727 = test: cells; type: functional, cell-based; details: Homo sapiens;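 further: growth inhibition of human NCI-H727 cells, read out with a cell viability assay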
Description: SANGER: Inhibition of human NCI-H727 cell growth in a cell viability assay.

Ca9-22 = test: cells; type: functional, cell-based; details: Homo sapiens;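 further: growth inhibition of Ca9-22 cells, read out with a cell viability assay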
Description: SANGER: Inhibition of human Ca9-22 cell growth in a cell viability assay.

GAMG = test: cells; type: functional, cell-based; details: Homo sapiens;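 further: cell growth inhibition measured by a viability assay in the GAMG human cell line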
Description: SANGER: Inhibition of human GAMG cell growth in a cell viability assay.

HPAF-II = test: cells; type: functional, cell-based; details: Homo sapiens;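 further: growth inhibition of HPAF-II cells, read out with a cell viability assay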
Description: SANGER: Inhibition of human HPAF-II cell growth in a cell viability assay.

EGI-1 = test: cells; type: functional, cell-based; details: Homo sapiens;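 further: cell viability readout used to gauge growth inhibition of EGI-1 cells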
Description: SANGER: Inhibition of human EGI-1 cell growth in a cell viability assay.

SK-MEL-28 = test: cells; type: functional, cell-based; details: Homo sapiens;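 further: growth inhibition of human SK-MEL-28 cells, read out with a cell viability assay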
Description: SANGER: Inhibition of human SK-MEL-28 cell growth in a cell viability assay.

HTC-C3 = test: cells; type: functional, cell-based; details: Homo sapiens;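 further: inhibition of cell growth, read out with a cell viability assay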
Description: SANGER: Inhibition of human HTC-C3 cell growth in a cell viability assay.

SW626 = test: cells; type: functional, cell-based; details: Homo sapiens;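 further: growth inhibition of SW626 cells, measured with a cell viability assay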
Description: SANGER: Inhibition of human SW626 cell growth in a cell viability assay.

NCI-H1993 = test: cells; type: functional, cell-based; details: Homo sapiens;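 further: growth inhibition of the cancer cell line, assessed with a cell viability assay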
Description: SANGER: Inhibition of human NCI-H1993 cell growth in a cell viability assay.

GP5d = test: cells; type: functional, cell-based; details: Homo sapiens;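 further: growth inhibition of human GP5d cells, read out with a cell viability assay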
Description: SANGER: Inhibition of human GP5d cell growth in a cell viability assay.

NCI-H630 = test: cells; type: functional, cell-based; details: Homo sapiens;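 further: growth inhibition of NCI-H630 cells, read out with a cell viability assay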
Description: SANGER: Inhibition of human NCI-H630 cell growth in a cell viability assay.

MDA-MB-361 = test: cells; type: functional, cell-based; details: Homo sapiens
MEL-HO = test: cells; type: functional, cell-based; details: Homo sapiens
Description: SANGER: Inhibition of human MEL-HO cell growth in a cell viability assay.

SAS = test: cells; type: functional, cell-based; details: Homo sapiens;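 further: growth inhibition of SAS cells, read out with a cell viability assay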
Description: SANGER: Inhibition of human SAS cell growth in a cell viability assay.

CAL-12T = test: cells; type: functional, cell-based; details: Homo sapiens;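 further: growth inhibition of human CAL-12T cells, read out with a cell viability assay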
Description: SANGER: Inhibition of human CAL-12T cell growth in a cell viability assay.

MEL-JUSO = test: cells; type: functional, cell-based; details: Homo sapiens;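 further: growth inhibition of human MEL-JUSO cells, read out with a cell viability assay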
Description: SANGER: Inhibition of human MEL-JUSO cell growth in a cell viability assay.

NUGC-3 = test: cells; type: functional, cell-based; details: Homo sapiens;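 further: growth inhibition of human NUGC-3 cells, read out with a cell viability assay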
Description: SANGER: Inhibition of human NUGC-3 cell growth in a cell viability assay.

KYSE-70 cell line = test: cells; type: functional, cell-based; details: Homo sapiens;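 further: cell viability assay read-out, with IC50 expressing suppression of KYSE-70 cell growth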
Description: SANGER: Inhibition of human KYSE-70 cell growth in a cell viability assay.

HCC1806 = test: cells; type: functional, cell-based; details: Homo sapiens;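 further: growth inhibition of the cancer cell line, determined with a cell viability assay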
Description: SANGER: Inhibition of human HCC1806 cell growth in a cell viability assay.

BT-20 = test: cells; type: functional, cell-based; details: Homo sapiens;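 further: cell viability assay measuring suppression of growth in human BT-20 cells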
Description: SANGER: Inhibition of human BT-20 cell growth in a cell viability assay.

MKN-28 = test: cells; type: functional, cell-based; details: Homo sapiens;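 further: cell viability assay read-out, IC50 reflects suppression of growth of human MKN-28 cells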
Description: SANGER: Inhibition of human MKN28 cell growth in a cell viability assay.

MeWo = test: cells; type: functional, cell-based; details: Homo sapiens;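 further: growth inhibition of MeWo cells, determined by a cell viability readout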
Description: SANGER: Inhibition of human Mewo cell growth in a cell viability assay.

G-401 = test: cells; type: functional, cell-based; details: Homo sapiens
Description: SANGER: Inhibition of human G-401 cell growth in a cell viability assay.

BHY = test: cells; type: functional, cell-based; details: Homo sapiens;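 further: cell growth inhibition read out by a viability assay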
Description: SANGER: Inhibition of human BHY cell growth in a cell viability assay.

D-336MG = test: cells; type: functional, cell-based, Homo sapiens; details: Homo sapiens, D-336MG
Description: SANGER: Inhibition of human D-336MG cell growth in a cell viability assay.

HCC70 = test: cells; type: functional, cell-based; details: Homo sapiens;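 further: cell viability assay measuring how strongly the compound suppresses proliferation of HCC70 cells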
Description: SANGER: Inhibition of human HCC70 cell growth in a cell viability assay.

TCC-SUP = test: cells; type: functional, cell-based; details: Homo sapiens;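 further: growth inhibition of TCC-SUP cells, read out with a cell viability assay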
Description: SANGER: Inhibition of human TCCSUP cell growth in a cell viability assay.

HT-3 = test: cells; type: functional, cell-based; details: Homo sapiens;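 further: growth inhibition measured with a cell viability readout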
Description: SANGER: Inhibition of human HT-3 cell growth in a cell viability assay.

HCC38 = test: cells; type: functional, cell-based; details: Homo sapiens;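 further: cell viability assay on the human HCC38 cell line, with IC50 marking the concentration that inhibits cell growth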
Description: SANGER: Inhibition of human HCC38 cell growth in a cell viability assay.

PC-14 = test: cells; type: functional, cell-based; details: Homo sapiens;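 further: cell viability assay measuring inhibition of PC-14 cell growth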
Description: SANGER: Inhibition of human PC-14 cell growth in a cell viability assay.

IMR-5 = test: cells; type: functional, cell-based, Homo sapiens; details: Homo sapiens, IMR-5; read-out: IC50;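 further: growth inhibition of human IMR-5 cells, read out with a cell viability assay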
Description: SANGER: Inhibition of human IMR-5 cell growth in a cell viability assay.

BL-41 = test: cells; type: functional, cell-based; details: Homo sapiens;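 further: growth inhibition of human BL-41 cells, read out with a cell viability assay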
Description: SANGER: Inhibition of human BL-41 cell growth in a cell viability assay.

DG-75 = test: cells; type: functional, cell-based, Homo sapiens; details: Homo sapiens, DG-75;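 further: growth inhibition of DG-75 cells, read out with a cell viability assay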
Description: SANGER: Inhibition of human DG-75 cell growth in a cell viability assay.

NCI-H510A = test: cells; type: functional, cell-based, Homo sapiens; details: Homo sapiens, NCI-H510A;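 further: growth inhibition of NCI-H510A cells, read out with a cell viability assay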
Description: SANGER: Inhibition of human NCI-H510A cell growth in a cell viability assay.

IM-9 = test: SANGER: Inhibition of human IM-9 cell growth in a cell viability assay.; type: functional, cell-based; details: Homo sapiens, IM-9
EC-GI-10 = test: cells; type: functional, cell-based, Homo sapiens; details: Homo sapiens, EC-GI-10
Description: SANGER: Inhibition of human EC-GI-10 cell growth in a cell viability assay.

REH = test: cells; type: functional, cell-based, Homo sapiens; details: Homo sapiens, REH;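 further: growth inhibition of REH cells determined with a cell viability read-out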
Description: SANGER: Inhibition of human REH cell growth in a cell viability assay.

NCI-H524 = test: cells; type: functional, cell-based, Homo sapiens; details: Homo sapiens, NCI-H524;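 further: growth inhibition of human NCI-H524 cells, read out through a cell viability assay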
Description: SANGER: Inhibition of human NCI-H524 cell growth in a cell viability assay.

LC4-1 = test: cells; type: functional, cell-based, Homo sapiens; details: Homo sapiens, LC4-1;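 further: growth inhibition of LC4-1 cells, read out with a cell viability assay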
Description: SANGER: Inhibition of human LC4-1 cell growth in a cell viability assay.

CMK = test: cells; type: functional, cell-based, Homo sapiens; details: Homo sapiens, CMK;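 further: growth inhibition of CMK cells, read out as cell viability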
Description: SANGER: Inhibition of human CMK cell growth in a cell viability assay.

MDA-MB-134-VI = test: cells; type: functional, cell-based, Homo sapiens; details: Homo sapiens, MDA-MB-134-VI
Description: SANGER: Inhibition of human MDA-MB-134-VI cell growth in a cell viability assay.

Cc1ccc(-n2nc(C(C)(C)C)cc2NC(=O)Nc2ccc(OCCN3CCOCC3)c3ccccc23)cc1 [DORAMAPIMOD]
IC50 (JEG-3): > 10 µM
IC50 (SNU-423): > 10 µM
IC50 (G-402): > 10 µM
IC50 (M059J): > 10 µM
IC50 (NCI-H1563): > 10 µM
IC50 (VMRC-RCZ): > 10 µM
IC50 (AGS): > 10 µM
IC50 (HT55): > 10 µM
IC50 (LK-2): > 10 µM
IC50 (SW-620): > 10 µM
IC50 (HEC-1): > 10 µM
IC50 (NCI-H460): > 10 µM
IC50 (RPMI-2650): > 10 µM
IC50 (Hs-578T): > 10 µM
IC50 (MG-63): > 10 µM
IC50 (KP-N-YN): 8.2 µM
IC50 (LCLC-103H cell line): > 10 µM
IC50 (NY): > 10 µM
IC50 (T98G): > 10 µM
IC50 (PANC-08-13): > 10 µM
IC50 (NCI-H522): > 10 µM
IC50 (NCI-H727): > 10 µM
IC50 (Ca9-22): > 10 µM
IC50 (GAMG): > 10 µM
IC50 (HPAF-II): > 10 µM
IC50 (EGI-1): > 10 µM
IC50 (SK-MEL-28): > 10 µM
IC50 (HTC-C3): > 10 µM
IC50 (SW626): > 10 µM
IC50 (NCI-H1993): > 10 µM
IC50 (GP5d): > 10 µM
IC50 (NCI-H630): > 10 µM
IC50 (MDA-MB-361): > 10 µM
IC50 (MEL-HO): > 10 µM
IC50 (SAS): > 10 µM
IC50 (CAL-12T): > 10 µM
IC50 (MEL-JUSO): > 10 µM
IC50 (NUGC-3): > 10 µM
IC50 (KYSE-70 cell line): > 10 µM
IC50 (HCC1806): > 10 µM
IC50 (BT-20): > 10 µM
IC50 (MKN-28): > 10 µM
IC50 (MeWo): > 10 µM
IC50 (G-401): > 10 µM
IC50 (BHY): > 10 µM
IC50 (D-336MG): > 10 µM
IC50 (HCC70): > 10 µM
IC50 (TCC-SUP): > 10 µM
IC50 (HT-3): > 10 µM
IC50 (HCC38): > 10 µM
IC50 (PC-14): > 10 µM

O=S(=O)(O)c1ccc2cc(/N=N/c3cc(S(=O)(=O)O)c4cccnc4c3O)ccc2c1
IC50 (JEG-3): > 16 µM
IC50 (SNU-423): > 16 µM
IC50 (G-402): > 16 µM
IC50 (M059J): 14.9 µM
IC50 (NCI-H1563): > 16 µM
IC50 (VMRC-RCZ): > 16 µM
IC50 (AGS): > 16 µM
IC50 (IMR-5): > 16 µM
IC50 (HT55): > 16 µM
IC50 (BL-41): > 16 µM
IC50 (LK-2): > 16 µM
IC50 (SW-620): > 16 µM
IC50 (DG-75): > 16 µM
IC50 (HEC-1): > 16 µM
IC50 (NCI-H460): > 16 µM
IC50 (RPMI-2650): > 16 µM
IC50 (Hs-578T): > 16 µM
IC50 (MG-63): > 16 µM
IC50 (LCLC-103H cell line): > 16 µM
IC50 (NCI-H510A): > 16 µM
IC50 (NY): > 16 µM
IC50 (T98G): > 16 µM
IC50 (PANC-08-13): > 16 µM
IC50 (NCI-H522): > 16 µM
IC50 (NCI-H727): > 16 µM
IC50 (Ca9-22): > 16 µM
IC50 (GAMG): > 16 µM
IC50 (HPAF-II): > 16 µM
IC50 (IM-9): > 16 µM
IC50 (EGI-1): > 16 µM
IC50 (SK-MEL-28): > 16 µM
IC50 (HTC-C3): > 16 µM
IC50 (SW626): > 16 µM
IC50 (NCI-H1993): > 16 µM
IC50 (GP5d): > 16 µM
IC50 (NCI-H630): > 16 µM
IC50 (MDA-MB-361): > 16 µM
IC50 (MEL-HO): > 16 µM
IC50 (EC-GI-10): > 16 µM
IC50 (SAS): > 16 µM
IC50 (REH): > 16 µM
IC50 (NCI-H524): > 16 µM
IC50 (CAL-12T): > 16 µM
IC50 (MEL-JUSO): > 16 µM
IC50 (NUGC-3): > 16 µM
IC50 (KYSE-70 cell line): > 16 µM
IC50 (HCC1806): > 16 µM
IC50 (BT-20): > 16 µM
IC50 (MKN-28): > 16 µM
IC50 (LC4-1): > 16 µM
IC50 (CMK): > 16 µM
IC50 (MeWo): > 16 µM
IC50 (G-401): > 16 µM
IC50 (BHY): > 16 µM
IC50 (D-336MG): > 16 µM
IC50 (HCC70): > 16 µM
IC50 (TCC-SUP): > 16 µM
IC50 (MDA-MB-134-VI): > 16 µM
IC50 (HT-3): > 16 µM
IC50 (HCC38): > 16 µM
IC50 (PC-14): > 16 µM
